Test results as given in patent US20050101595A1, “N-containing cycloalkyl-substituted amino-thiazole derivatives and pharmaceutical compositions for inhibiting cell proliferation and methods for their use” (PFIZER INC., priority 2003, published 2005).
Counter-ions that a name gives are not always drawn. Like-named read-outs stand apart in the source and are kept apart here. Blank lines part the entries; values can stand above or below the compound they belong to.

Experiments:
HCT-116 cell line = test: Inhibition of cell growth, tetrazolium salt (MTT) assay; assay type: cell-based; conditions: for IC50: Homo sapiens, HCT-116, 120 h, MTT, three to five days, read-out: HCT-116 IC50; for HCT-116 % Inhibition at 0.25 μM: 0.25 μM compound
Outline: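 MTT colorimetric viability: three-to-five-day compound exposure in 0.5% (v/v) DMSO at 37° C, MTT 0.2 mg/mL for the last 4 h, A540 compared with vehicle-treated cells.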

CDK2/Cyclin A = CDK2/Cyclin A (Homo sapiens, UniProt P24941); test: Inhibition of CDK2/Cyclin A Retinoblastoma Kinase Activity; assay type: biochemical; conditions: for Ki: apparent Ki, CDK2/proteolyzed cyclin A, Rb fragment substrate, 25 μM ATP; for CDK2 % Inhibition At 0.03 μM: Table 2
Outline: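 CDK2 (10 or 19 nM), insect-cell expressed, gel-filtration purified with truncated cyclin A; Rb fragment substrate; 25 μM ATP; 10 mM HEPES pH 7.4, 10 mM MgCl2; 30° C, 60 or 75 min; EDTA stop; phosphocellulose/nitrocellulose capture, phosphorimager. % inhibition vs DMSO control, no-enzyme background subtracted.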

[1] = target: human CDK4 and genetically truncated (1-264) cyclin D3 (Homo sapiens, UniProt P11802); test: Inhibition of CDK4/Cyclin D Retinoblastoma Kinase Activity; assay type: biochemical; conditions: for Ki: apparent Ki, CDK4/truncated cyclin D3, Rb fragment substrate, 25 μM ATP
Outline: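 The enzyme complex (5 nM), expressed in co-infected insect cells, was incubated with recombinant Rb fragment, 25 μM radiolabelled ATP and 2% DMSO at 30 °C. Reactions were stopped with EDTA after 20 minutes, or 60 minutes for tight-binding inhibitors. Apparent Ki values came from competitive inhibition fits.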

[2] = 0.1 μM compound, HCT-116, Table 3

Chain of human CDK4 and genetically truncated (1-264) cyclin D3 (P11802 whole entry, the tested form may be a part): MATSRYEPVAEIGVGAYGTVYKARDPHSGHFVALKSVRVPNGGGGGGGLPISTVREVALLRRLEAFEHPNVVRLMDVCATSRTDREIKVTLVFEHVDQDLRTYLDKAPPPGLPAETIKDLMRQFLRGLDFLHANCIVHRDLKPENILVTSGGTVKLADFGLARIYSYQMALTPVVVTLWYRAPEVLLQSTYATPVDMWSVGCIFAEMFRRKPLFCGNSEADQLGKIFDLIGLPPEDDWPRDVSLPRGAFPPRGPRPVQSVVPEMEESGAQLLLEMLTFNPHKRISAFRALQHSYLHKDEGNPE
Chain of human CDK4 and genetically truncated (1-264) cyclin D3 (P30281 1-264 partner): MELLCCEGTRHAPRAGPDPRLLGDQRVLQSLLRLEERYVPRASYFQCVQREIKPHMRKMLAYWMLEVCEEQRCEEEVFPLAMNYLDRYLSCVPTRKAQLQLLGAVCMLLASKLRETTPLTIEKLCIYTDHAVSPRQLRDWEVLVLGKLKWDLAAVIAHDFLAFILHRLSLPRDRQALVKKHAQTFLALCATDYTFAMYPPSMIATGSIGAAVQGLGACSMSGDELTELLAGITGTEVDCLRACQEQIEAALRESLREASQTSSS

- IC50 (HCT-116 cell line; first HCT-116 column (c4)): 100 nM
- IC50 (HCT-116 cell line; second HCT-116 column (c5)): 500 nM
- Ki (CDK2/Cyclin A): 0.7 nM
- Ki [1]: 2.5 nM
SMILES: Nc1nc(NC2CCN(S(=O)(=O)c3ccc(OCCO)nc3)CC2)sc1C(=O)c1c(F)cccc1F [Example H4, 1-(4-Amino-2-{1-[6-(2-hydroxy-ethoxy)-pyridine-3-sulfonyl]-piperidin-4-ylamino}-thiazol-5-yl)-1-(2,6-difluoro-phenyl)-methanone]

- CDK2 % Inhibition at 0.03 μM (CDK2/Cyclin A; at 0.03 μM): 6%
- CDK4 % Inhibition at 0.03 μM ([1]; at 0.03 μM): −3%
SMILES: CC(C)(C)COC(=O)N1CCC(Nc2nc(N)c(C(=O)c3c(F)cccc3F)s2)CC1 [Example R88]
- HCT-116 % Inhibition at 0.1 μM (HCT-116 cell line; HCT-116 cells, at 0.1 μM): 0%
- HCT-116 5 Inhibition at 0.25 μM (HCT-116 cell line; HCT-116 cells): 42

- CDK2 % Inhibition at 0.03 μM (CDK2/Cyclin A; at 0.03 μM): 26%
- CDK4 % Inhibition at 0.03 μM ([1]; at 0.03 μM): 45%
SMILES: COc1cccc(C(=O)N2CCC(Nc3nc(N)c(C(=O)c4c(F)cccc4F)s3)CC2)c1 [Example R136]
- HCT-116 % Inhibition at 0.1 μM (HCT-116 cell line; HCT-116 cells, at 0.1 μM): 0%
- HCT-116 5 Inhibition at 0.25 μM (HCT-116 cell line; HCT-116 cells): 37

- IC50 (HCT-116 cell line; first HCT-116 column (c4)): 2100 nM
- IC50 (HCT-116 cell line; second HCT-116 column (c5)): 5000 nM
- Ki (CDK2/Cyclin A): 433 nM
- Ki [1]: 33.5 nM
SMILES: Nc1nc(NC2CCN(Cc3ccncc3)CC2)sc1C(=O)c1c(F)cccc1F [Example M2, 1-[4-Amino-2-(1-pyridin-4-ylmethyl-piperidin-4-ylamino)-thiazol-5-yl]-1-(2,6-difluoro-phenyl)-methanone.]

- IC50 (HCT-116 cell line; first HCT-116 column (c4)): 170 nM
- IC50 (HCT-116 cell line; second HCT-116 column (c5)): 1300 nM
- Ki (CDK2/Cyclin A): 1.4 nM
- Ki [1]: 1.3 nM
SMILES: Nc1nc(NC2CCN(S(=O)(=O)c3ccc(N4CCOCC4)nc3)CC2)sc1C(=O)c1c(F)cccc1F [Example F20, 1-{4-Amino-2-[1-(6-morpholin-4-yl-pyridine-3-sulfonyl)-piperidin-4-ylamino]-thiazol-5-yl}-1-(2,6-difluoro-phenyl)-methanone Hydrochloride]

- CDK2 % Inhibition At 0.03 μM (CDK2/Cyclin A; 0.03 μM compound): 29%
- CDK4 % Inhibition at 0.03 μM ([1]; 0.03 μM compound, Table 2): 15%
SMILES: CCOC(=O)NC(=O)N1CCC(Nc2nc(N)c(C(=O)c3c(F)cccc3F)s2)CC1 [Example O38]
- HCT-116 % Inhibition at 0.25 μM (HCT-116 cell line; HCT-116, Table 2): 29%

- CDK2 % Inhibition at 0.03 μM (CDK2/Cyclin A; 0.03 μM compound, Table 3): 80%
- CDK4 % Inhibition at 0.03 μM ([1]; 0.03 μM compound, Table 3): 81%
SMILES: Nc1nc(NC2CCN(S(=O)(=O)c3ccc(-c4ccon4)s3)CC2)sc1C(=O)c1c(F)cccc1F [Example P64]
- HCT-116 % Inhibition at 0.1 μM (HCT-116 cell line; [2]): 13%
- HCT-116 % Inhibition at 0.25 μM (HCT-116 cell line; HCT-116, Table 3): 31%

- CDK2 % Inhibition at 0.03 μM (CDK2/Cyclin A; 0.03 μM compound, Table 3): 59%
- CDK4 % Inhibition at 0.03 μM ([1]; 0.03 μM compound, Table 3): 67%
SMILES: N#Cc1ccccc1S(=O)(=O)N1CCC(Nc2nc(N)c(C(=O)c3c(F)cccc3F)s2)CC1 [Example P48]
- HCT-116 % Inhibition at 0.1 μM (HCT-116 cell line; [2]): 24%
- HCT-116 % Inhibition at 0.25 μM (HCT-116 cell line; HCT-116, Table 3): 31%

- CDK2 % Inhibition at 0.03 μM (CDK2/Cyclin A; at 0.03 μM): −34%
- CDK4 % Inhibition at 0.03 μM ([1]; at 0.03 μM): 3%
SMILES: Nc1nc(NC2CCN(C(=O)C(c3ccccc3)c3ccccc3)CC2)sc1C(=O)c1c(F)cccc1F [Example R1]
- HCT-116 % Inhibition at 0.1 μM (HCT-116 cell line; HCT-116 cells, at 0.1 μM): 0%
- HCT-116 5 Inhibition at 0.25 μM (HCT-116 cell line; HCT-116 cells): 32

- CDK2 % Inhibition At 0.03 μM (CDK2/Cyclin A; 0.03 μM compound): 37%
- CDK4 % Inhibition at 0.03 μM ([1]; 0.03 μM compound, Table 2): 13%
SMILES: COc1ccc(C)cc1NC(=O)N1CCC(Nc2nc(N)c(C(=O)c3c(F)cccc3F)s2)CC1 [Example O50]
- HCT-116 % Inhibition at 0.25 μM (HCT-116 cell line; HCT-116, Table 2): 62%

- CDK2 % Inhibition At 0.03 μM (CDK2/Cyclin A; 0.03 μM compound): 34%
- CDK4 % Inhibition at 0.03 μM ([1]; 0.03 μM compound, Table 2): 13%
SMILES: CCOC(=O)c1ccc(NC(=O)N2CCC(Nc3nc(N)c(C(=O)c4c(F)cccc4F)s3)CC2)cc1 [Example O22]
- HCT-116 % Inhibition at 0.25 μM (HCT-116 cell line; HCT-116, Table 2): 25%

- IC50 (HCT-116 cell line; first HCT-116 column (c4)): 50 nM
- IC50 (HCT-116 cell line; second HCT-116 column (c5)): 170 nM
- Ki (CDK2/Cyclin A): 0.82 nM
- Ki [1]: 1 nM
SMILES: Nc1nc(NC2CCN(S(=O)(=O)CCNCc3cccc(F)c3F)CC2)sc1C(=O)c1c(F)cccc1F [Example K45, (4-Amino-2-{1-[2-(2,3-difluoro-benzylamino)-ethanesulfonyl]-piperidin-4-ylamino}-thiazol-5-yl)-(2,6-difluoro-phenyl)-methanone]

- CDK2 % Inhibition at 0.03 μM (CDK2/Cyclin A; at 0.03 μM): 5%
- CDK4 % Inhibition at 0.03 μM ([1]; at 0.03 μM): 29%
SMILES: CCC(C(=O)N1CCC(Nc2nc(N)c(C(=O)c3c(F)cccc3F)s2)CC1)c1ccccc1 (stereo not shown) [Example R10]
- HCT-116 % Inhibition at 0.1 μM (HCT-116 cell line; HCT-116 cells, at 0.1 μM): 0%
- HCT-116 5 Inhibition at 0.25 μM (HCT-116 cell line; HCT-116 cells): 40

- CDK2 % Inhibition At 0.03 μM (CDK2/Cyclin A; 0.03 μM compound): 24%
- CDK4 % Inhibition at 0.03 μM ([1]; 0.03 μM compound, Table 2): 8%
SMILES: COC(=O)[C@H](CC(C)C)NC(=O)N1CCC(Nc2nc(N)c(C(=O)c3c(F)cccc3F)s2)CC1 [Example O77]
- HCT-116 % Inhibition at 0.25 μM (HCT-116 cell line; HCT-116, Table 2): 43%
